Measured values from patent US20160346249A1 (priority 2012, published 2016).
“And” between values parts separate entries of the source, which are not always exact repeats. Equal entries are not always repeated.

What was measured:
[1] = 13-week mouse toxicity and toxicokinetic study; settings: in vivo; for AUC(0-t): AUC0-24
Description: For toxicology assessment ten mice of each gender were placed in each group.
Ophthalmic examinations were performed during Weeks −1 and 12.

[2] = Single dose 300 mg / 450 mg pharmacokinetic, safety and tolerability study in healthy male and female subjects; settings: for renal clearance, individual subjects: listed as DOV 21,947; for CL renal: urine and plasma, renal clearance; for CL renal / Percent of Dose in Urine (0-24 hr): Mean (SD)
Description: Fourteen subjects, divided equally between males and females, were enrolled in the study and randomized between test article (5/sex) and placebo (2/sex). […] All subjects met the inclusion and exclusion criteria for entry into the study as detailed in the protocol and signed an informed consent form.
The subjects were confined to the clinical study site from Day −1 to the morning of Day 2, when they underwent a brief physical examination, clinical laboratory tests, and a physician visit before they were discharged. On Day 7, they reported to the clinical site again and were confined to the site until the morning of Day 9. At that time, they underwent a complete physical examination, clinical laboratory tests, and a physician's visit before they were discharged from the study. All subjects were fasted overnight on Days −1 and 7 from approximately 22:00 to approximately 4 hours post-dose on Days 1 and 8, at which time they received a standard lunch.
Subjects that received the placebo (2/sex) ingested six identical looking capsules with no drug. […] Capsules on both days were ingested with 240 mL water. […] Samples were collected into lithium heparin-containing Vacutainers® and centrifuged at approximately 3000 rpm to obtain the plasma fraction. The plasma was split into two polypropylene tubes and stored at −20° C. […] The urine volumes were recorded and an aliquot was stored for drug concentration measurements.
Validated LC/MS/MS assays were used for analyses; the assay range for both analytes in plasma and urine were 5.00 to 2000 ng/mL.
Plasma concentration-time data for each subject were analyzed with WinNonlin, version 4.1 (Pharsight Corporation, Mountain View, Calif.) using a non-compartmental model. […] Plasma concentrations listed as not detected (ND) or below the lower limit of quantitation (LLOQ) were set to zero. The values of Cmax and Tmax were the observed values for each subject. AUC0-t was determined using the linear trapezoidal rule whenever the concentration data were increasing and the logarithmic trapezoidal rule any time that the concentration data were decreasing. The apparent λz was calculated as the negative slope of the log-linear terminal portion of the blood concentration-time curve using linear regression. To allow for accurate calculation of λz, a minimum of three observations, selected by WinNonlin, was used. The t½ was calculated as ln 2/λz. AUC0-t was extrapolated to infinity (AUC0-∞) as follows: AUC0-∞=AUC0-t+Clast/λz where Clast is the last quantifiable concentration. The apparent oral clearance (CL/F) was calculated as Dose/AUC0-∞. The apparent oral volume of distribution (Vz/F) was calculated as Dose/λz×AUC0-∞. The mean residence time from time zero to infinity (MRT0-∞) was calculated as AUMC0-∞/AUC0-∞.

[3] = In vitro metabolism in human hepatocytes; settings: male, human, hepatocytes, 4 h, 87 μM
Description: Cryopreserved human hepatocytes (male) that are prepared by XenoTech, LLC (Lenexa, Kans.), are thawed on the day of use and resuspended in Waymouth's incubation media. The enzymatic activity of hepatocytes is monitored using 7-ethoxycoumarin and 7-hydroxycoumarin as substrates. […] The incubations are carried out for 4 hours with 1×10^6 viable cells/ml. […] At 0 and 4 hour, cell suspensions are extracted using two volumes of ice cold methanol. After centrifugation, the extracts are stored at −20° C. until further sample processing. The solvent in the samples are dried under a stream of nitrogen, and resuspended in methanol:water (1:1) before analysis.
The extracts of the 4 hour incubation mixture are analyzed by liquid chromatography/electrospray ionization-mass spectrometry (LC/ESI-MS) in the positive and negative ion modes to screen for possible metabolites. HPLC Methods 1 and 2 are used to find potential metabolites, and the HPLC and mass spectrometry systems are described in Table 56. The same instrumentation and methods in HPLC Method 1 are used in HPLC Method 2 with the exception that the mobile phases and gradient are changed to 0.4% HCOOH in H2O for mobile A and CH3OH for mobile phase B. The mass spectrometer is LCQ™ Ion Trap Mass Spectrometer and is in either the positive or negative electrospray mode with the ion spray set at 4.5 kV. The capillary temperature is 250° C., the nitrogen sheath gas flow rate is ˜80 unit, the auxiliary nitrogen gas flow rate is 20 unit, and the collision gas is helium.

[4] = female, Crl:CD-1(ICR) BR, po, 10 mg/kg/day
[5] = female, Crl:CD-1(ICR) BR, po, 30 mg/kg/day
[6] = female, Crl:CD-1(ICR) BR, po, 100 mg/kg/day
[7] = male, Crl:CD-1(ICR) BR, po, 10 mg/kg/day
[8] = male, Crl:CD-1(ICR) BR, po, 30 mg/kg/day
[9] = male, Crl:CD-1(ICR) BR, po, 100 mg/kg/day
[10] = both, human, plasma, oral, 300 mg
[11] = both, human, plasma, oral, 450 mg
[12] = both, human, plasma, po, 300 mg
[13] = both, human, plasma, po, 450 mg
[14] = female, human, plasma, po, 300 mg
[15] = female, human, plasma, po, 450 mg
[16] = male, human, plasma, po, 300 mg
[17] = male, human, plasma, po, 450 mg
[18] = single oral 300 mg DOV 21,947 HCl IR, Female, N = 5
[19] = single oral 300 mg DOV 21,947 HCl IR, Male, N = 5
[20] = single oral 300 mg DOV 21,947 HCl IR, mean, N = 10
[21] = single oral 450 mg DOV 21,947 HCl IR, Female, N = 5
[22] = single oral 450 mg DOV 21,947 HCl IR, Male, N = 5

Clc1ccc([C@]23CNC[C@H]2C3)cc1Cl [amitifadine, (+)-1-(3,4-dichlorophenyl)-3-azabicyclo[3.1.0]hexane]
NOAEL at 13 weeks ([1]; both sexes, Crl:CD-1(ICR) BR, oral, 13 weeks): 30 mg/kg/day | MTD at 13 weeks ([1]; both sexes, Crl:CD-1(ICR) BR, po): 100 mg/kg/day | anovulatory status (females affected) ([1]; female, Crl:CD-1(ICR) BR, 100 mg/kg/day, 13 weeks): 5/10 | AUC0-24 [1, 4]: 1980 ng·h/mL | AUC(0-t) [1, 4]: 2540 ng·h/mL | Cmax [1, 4]: 296 ng/mL | Tmax [1, 4]: 1 h | AUC0-24 [1, 5]: 7629 ng·h/mL | AUC(0-t) [1, 5]: 7120 ng·h/mL | Cmax [1, 5]: 972 ng/mL | Tmax [1, 5]: 2 h | AUC0-24 [1, 6]: 17431 ng·h/mL | AUC(0-t) [1, 6]: 20000 ng·h/mL | Cmax [1, 6]: 2450 ng/mL | Tmax [1, 6]: 1 h | ovary/oviduct weights lower ([1]; 100 mg/kg/day): 23-28% | AUC0-24 [1, 7]: 2141 ng·h/mL | AUC(0-t) [1, 7]: 2050 ng·h/mL | Cmax [1, 7]: 288 ng/mL | Tmax [1, 7]: 1 h | AUC0-24 [1, 8]: 6659 ng·h/mL | AUC(0-t) [1, 8]: 7290 ng·h/mL | Cmax [1, 8]: 704 ng/mL | Tmax [1, 8]: 1 h | AUC0-24 [1, 9]: 28952 ng·h/mL | AUC(0-t) [1, 9]: 24100 ng·h/mL | Cmax [1, 9]: 2850 ng/mL | Tmax [1, 9]: 1 h | ingested dose in urine (0-24 hr) ([2]; 300 mg): 0.4% | renal clearance, individual subjects ([2]; 300 mg single oral dose): 40.6 mL/h and 62.1 mL/h and 32.1 mL/h and 47.7 mL/h and 39.2 mL/h and 66.6 mL/h and 91.7 mL/h and 47.3 mL/h and 76.4 mL/h | ingested dose in urine (0-24 hr) ([2]; 450 mg): 0.3% | renal clearance, individual subjects ([2]; 450 mg single oral dose): 42.2 mL/h and 31.9 mL/h and 25.4 mL/h and 22.3 mL/h and 40.1 mL/h and 34.1 mL/h and 32.1 mL/h and 79.2 mL/h and 33.7 mL/h and 47.3 mL/h | oral clearance ([2]; 300 and 450 mg): 13.2 to 13.6 L/h | Cmax [2, 10]: 3370 ng/mL | Tmax [2, 10]: 2.15 h | Cmax [2, 11]: 5110 ng/mL | MRT [2, 11]: 6.3 to 6.4 h | Tmax [2, 11]: 2.43 h | half-life ([2]; both, human, plasma, oral, 450 mg, elimination half-life, 300 and 450 mg): ~4 h | AUC(0-inf) [2, 12]: 19700 ng·h/mL | AUC(0-t) [2, 12]: 19400 ng·h/mL | Cmax [2, 12]: 3370 ng/mL | MRT inf [2, 12]: 6.29 h | Tmax [2, 12]: 2.15 h | half-life ([2]; both, human, plasma, po, 300 mg, t½ (Harmonic mean), single oral 300 mg DOV 21,947 HCl IR, N = 10): 4.2 h | half-life ([2]; both, human, plasma, po, 300 mg, t½, single oral 300 mg DOV 21,947 HCl IR, arithmetic mean, N = 10): 4.24 h | AUC(0-inf) [2, 13]: 30500 ng·h/mL | AUC(0-t) [2, 13]: 30000 ng·h/mL | Cmax [2, 13]: 5110 ng/mL | MRT inf [2, 13]: 6.39 h | Tmax [2, 13]: 2.43 h | half-life ([2]; both, human, plasma, po, 450 mg, t½ (Harmonic mean), single oral 450 mg DOV 21,947 HCl IR, N = 10): 3.77 h | half-life ([2]; both, human, plasma, po, 450 mg, t½, single oral 450 mg DOV 21,947 HCl IR, arithmetic mean, N = 10): 3.82 h | CL renal ([2]; both, human, po, 300 mg, 300 mg single oral dose): 0.943 mL/min | CL renal ([2]; both, human, po, 450 mg, 450 mg single oral dose): 0.647 mL/min | AUC(0-inf) [2, 14]: 20500 ng·h/mL | AUC(0-t) [2, 14]: 20100 ng·h/mL | Cmax [2, 14]: 3260 ng/mL | MRT inf [2, 14]: 6.51 h | Tmax [2, 14]: 2.7 h | half-life ([2]; female, human, plasma, po, 300 mg, t½ (Harmonic mean), single oral 300 mg DOV 21,947 HCl IR, N = 5): 4.1 h | half-life ([2]; female, human, plasma, po, 300 mg, t½, single oral 300 mg DOV 21,947 HCl IR, N = 5, arithmetic mean): 4.14 h | AUC(0-inf) [2, 15]: 29900 ng·h/mL | AUC(0-t) [2, 15]: 29500 ng·h/mL | Cmax [2, 15]: 4540 ng/mL | MRT inf [2, 15]: 6.42 h | Tmax [2, 15]: 3 h | half-life ([2]; female, human, plasma, po, 450 mg, t½ (Harmonic mean), single oral 450 mg DOV 21,947 HCl IR, N = 5): 3.57 h | half-life ([2]; female, human, plasma, po, 450 mg, t½, single oral 450 mg DOV 21,947 HCl IR, N = 5, arithmetic mean): 3.58 h | AUC(0-inf) [2, 16]: 19000 ng·h/mL | AUC(0-t) [2, 16]: 18600 ng·h/mL | Cmax [2, 16]: 3480 ng/mL | MRT inf [2, 16]: 6.07 h | Tmax [2, 16]: 1.6 h | half-life ([2]; male, human, plasma, po, 300 mg, t½ (Harmonic mean), single oral 300 mg DOV 21,947 HCl IR, N = 5): 4.31 h | half-life ([2]; male, human, plasma, po, 300 mg, t½, single oral 300 mg DOV 21,947 HCl IR, N = 5, arithmetic mean): 4.34 h | AUC(0-inf) [2, 17]: 31100 ng·h/mL | AUC(0-t) [2, 17]: 30500 ng·h/mL | Cmax [2, 17]: 5680 ng/mL | MRT inf [2, 17]: 6.35 h | Tmax [2, 17]: 1.85 h | half-life ([2]; male, human, plasma, po, 450 mg, t½ (Harmonic mean), single oral 450 mg DOV 21,947 HCl IR, N = 5): 4 h | half-life ([2]; male, human, plasma, po, 450 mg, t½, single oral 450 mg DOV 21,947 HCl IR, N = 5, arithmetic mean): 4.06 h | CL/F [2, 18]: 13.0 L/h | λz [2, 18]: 0.169 h⁻¹ | CL/F [2, 19]: 14.2 L/h | λz [2, 19]: 0.161 h⁻¹ | Percent of Dose in Urine (0-24 hr) ([2]; single oral 300 mg DOV 21,947 HCl IR): 0.411 (0.121) Percent of Dose | Mean Amount in Urine ([2]; single oral 300 mg DOV 21,947 HCl IR, Period 0-1 hr): 17.0 µg | Mean Amount in Urine ([2]; single oral 300 mg DOV 21,947 HCl IR, Period 1-2 hr): 115 µg | Mean Amount in Urine ([2]; single oral 300 mg DOV 21,947 HCl IR, Period 2-4 hr): 279 µg | Mean Amount in Urine ([2]; single oral 300 mg DOV 21,947 HCl IR, Period 4-8 hr): 371 µg | Mean Amount in Urine ([2]; single oral 300 mg DOV 21,947 HCl IR, Period 8-12 hr): 137 µg | Mean Amount in Urine ([2]; single oral 300 mg DOV 21,947 HCl IR, Period 12-24 hr): 115 µg | Mean Amount in Urine ([2]; single oral 300 mg DOV 21,947 HCl IR, Total (0-24 hr)): 1064 µg | CL/F [2, 20]: 13.6 L/h | λz [2, 20]: 0.165 h⁻¹ | CL/F [2, 21]: 13.7 L/h | λz [2, 21]: 0.194 h⁻¹ | CL/F [2, 22]: 12.8 L/h | λz [2, 22]: 0.173 h⁻¹ | Percent of Dose in Urine (0-24 hr) ([2]; single oral 450 mg DOV 21,947 HCl IR): 0.299 (0.143) Percent of Dose | Mean Amount in Urine ([2]; single oral 450 mg DOV 21,947 HCl IR, Period 0-1 hr): 9.4 µg | Mean Amount in Urine ([2]; single oral 450 mg DOV 21,947 HCl IR, Period 1-2 hr): 66.3 µg | Mean Amount in Urine ([2]; single oral 450 mg DOV 21,947 HCl IR, Period 2-4 hr): 322 µg | Mean Amount in Urine ([2]; single oral 450 mg DOV 21,947 HCl IR, Period 4-8 hr): 402 µg | Mean Amount in Urine ([2]; single oral 450 mg DOV 21,947 HCl IR, Period 8-12 hr): 195 µg | Mean Amount in Urine ([2]; single oral 450 mg DOV 21,947 HCl IR, Period 12-24 hr): 164 µg | Mean Amount in Urine ([2]; single oral 450 mg DOV 21,947 HCl IR, Total (0-24 hr)): 1159 µg | λz ([2]; single oral 450 mg DOV 21,947 HCl IR, mean, N = 10): 0.184 h⁻¹ | remains unchanged after 4 hour incubation [3]: 82.4%
